{
  "source": "patent US20130065885A1",
  "about": "“ORAL THERAPEUTIC COMPOUND DELIVERY SYSTEM” (IMAGINOT PTY LTD., priority 2004, published 2013)",
  "key": {"[1]": {"conditions": "cited from earlier work"}, "[2]": {"experiment": "physchem", "conditions": "water"}},
  "note": "Where a name gives a salt, the structure may show the parent alone. Read-outs that look alike come from different tables or passages of the source.",
  "data": [
    {"smiles": "COc1cccc(C2(O)CCCCC2CN(C)C)c1", "note": "(stereo not drawn) [tramadol hydrochloride]", "values": [
      {"measurement": "Volume of water to dissolve dose", "value": 1.3, "unit": "mL"},
      {"measurement": "volume needed for total dissolution of the dose", "value": "around 1 mL"},
      {"measurement": "solubility in water", "setting": "[1]", "value": "around 30 mg/mL"},
      {"measurement": "solubility", "setting": "[2]", "value": 30, "unit": "mg/mL"}
    ]},
    {"smiles": "CN1CCC[C@@H]1Cc1c[nH]c2ccc(CCS(=O)(=O)c3ccccc3)cc12", "note": "[Eletriptan hydrobromide]", "values": [
      {"measurement": "Volume of water to dissolve dose", "setting": "dose as in the Dose (mg) column", "value": 4, "unit": "mL"}
    ]},
    {"smiles": "CC(=O)Nc1ccc(O)cc1", "note": "[paracetamol]", "values": [
      {"measurement": "volume needed for total dissolution of the dose", "setting": "weight for weight basis, dose in the paracetamol/tramadol hydrochloride tablet", "value": "around 27 mL"}
    ]}
  ]
}
